Data published in US9481648B2, “Kinase inhibitors” (Respivert Limited, priority 2013, dated 2016).

Columns and labels:
c-Src = c-Src (Homo sapiens (Human), UniProt P12931); test: c-Src enzyme inhibition (FRET, Z-LYTE); format: biochemical
Method: (§1) The enzyme inhibitory activities of compounds disclosed herein are determined by FRET using synthetic peptides labelled with both donor and acceptor fluorophores (Z-LYTE, Invitrogen Ltd., Paisley, UK).
(§2) The relevant enzyme (3000 ng/mL or 2000 ng/mL respectively, 2.5 μL) is incubated with the test compound (either 1 μg/mL, 0.1 μg/mL, 0.01 μg/mL, or 0.001 μg/mL, 2.5 μL each) for 2 hr at RT. The FRET peptides (8 μM, 2.5 μL), and appropriate ATP solutions (2.5 μL, 800 μM for c-Src, and 60 μM ATP for Syk) are then added to the enzymes/compound mixtures and the mixture incubated for 1 hr. Development reagent (protease, 5 μL) is added for 1 hr prior to detection in a fluorescence microplate reader (Varioskan® Flash, ThermoFisher Scientific).
(§3) In all cases, the site-specific protease cleaves non-phosphorylated peptide only and eliminates the FRET signal. Phosphorylation levels of each reaction are calculated using the ratio of coumarin emission (donor) over fluorescein emission (acceptor), for which high ratios indicate high phosphorylation and low ratios indicate low phosphorylation levels.

p38 MAPKα (MAPK14) = p38 MAPKα (MAPK14) (Homo sapiens (Human), UniProt Q16539); test: p38 MAPKα enzyme inhibition (FRET, Z-LYTE; Method 2); format: biochemical
Sequence of p38 MAPKα (MAPK14) (Q16539 whole entry): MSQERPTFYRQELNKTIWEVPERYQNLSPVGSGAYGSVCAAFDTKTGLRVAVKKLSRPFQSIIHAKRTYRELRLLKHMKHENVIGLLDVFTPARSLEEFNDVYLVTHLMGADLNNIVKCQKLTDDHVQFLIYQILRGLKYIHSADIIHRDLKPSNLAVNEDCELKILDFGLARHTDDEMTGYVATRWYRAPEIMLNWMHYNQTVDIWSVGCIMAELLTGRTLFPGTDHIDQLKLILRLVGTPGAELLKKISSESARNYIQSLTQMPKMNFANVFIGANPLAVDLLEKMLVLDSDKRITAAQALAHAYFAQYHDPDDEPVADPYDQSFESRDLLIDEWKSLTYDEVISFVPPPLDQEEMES
Method: as §1
The inhibitory activities of test compounds against the p38 MAPKα isoform (MAPK14: Invitrogen) are evaluated indirectly by determining the level of activation\phosphorylation of the down-stream molecule, MAPKAP-K2. The p38 MAPKα protein (80 ng/mL, 2.5 μL) is mixed with the test compound (2.5 μL of either 4 μg/mL, 0.4 μg/mL, 0.04 μg/mL or 0.004 μg/mL) for 2 hr at RT. […] The mixture is incubated for 1 hr at RT. Development reagent (protease, 5 μL) is added for 1 hr prior to detection in a fluorescence microplate reader (Vanoskan® Flash, ThermoFisher Scientific).
as §3

GSK 3α = GSK 3α (Homo sapiens (Human), UniProt P49840); test: GSK 3α enzyme inhibition (FRET, Z-LYTE; Method 2); format: biochemical; conditions: read-out: IC50 Values for Enzyme Inhibition GSK3α
Sequence of GSK 3α (P49840 whole entry): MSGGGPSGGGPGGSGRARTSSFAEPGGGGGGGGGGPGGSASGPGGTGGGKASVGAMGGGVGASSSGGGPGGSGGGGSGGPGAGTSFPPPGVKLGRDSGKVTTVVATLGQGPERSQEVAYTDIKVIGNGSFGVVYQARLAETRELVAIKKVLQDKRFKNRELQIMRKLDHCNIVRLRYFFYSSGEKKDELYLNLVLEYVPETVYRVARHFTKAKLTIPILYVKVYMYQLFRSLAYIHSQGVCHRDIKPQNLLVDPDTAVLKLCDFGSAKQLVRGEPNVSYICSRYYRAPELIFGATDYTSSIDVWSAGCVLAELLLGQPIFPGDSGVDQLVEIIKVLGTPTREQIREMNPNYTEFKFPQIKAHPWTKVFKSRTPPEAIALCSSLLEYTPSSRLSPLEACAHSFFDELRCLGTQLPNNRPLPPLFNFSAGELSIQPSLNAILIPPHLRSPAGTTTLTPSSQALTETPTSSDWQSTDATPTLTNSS
Summary of the method: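 Z-LYTE FRET assay: GSK3-α (500 ng/mL stock) preincubated 105 min at RT with compound at 10, 1, 0.1 or 0.01 μg/mL stock. FRET peptide (8 μM stock) and ATP (40 μM stock) were then added for 1 h, followed by protease development for 1 h. Phosphorylation was read as coumarin/fluorescein emission ratio.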

[1] = tested on: β-catenin in d-U937 cells; test: Accumulation of β catenin in d-U937 cells (assay m); format: cell-based, human
Method: U937 cells, a human monocytic cell line, are differentiated into macrophage-type cells by incubation with PMA (100 ng/mL) for between 48 to 72 hr. The cells are then incubated with either final concentrations of test compound or vehicle for 18 hr. The induction of β-catenin by the test compounds is stopped by replacing the media with 4% formaldehyde solution. Endogenous […] is neutralised by incubating with quenching buffer (100 μL, 0.1% sodium azide, 1% H2O2 in PBS with 0.05% Tween-20) for 20 min. The cells are washed with washing buffer (200 μL; PBS containing 0.05% Tween-20) and incubated with blocking solution (200 μL; 5% milk in PBS) for 1 hr, re-washed with washing buffer (200 μL) and then incubated overnight with anti-β-catenin antibody solution (50 μL) in 1% BSA/PBS (BD, Oxford, UK).
After washing with washing buffer (3×200 μL; PBS containing 0.05% Tween-20), cells are incubated with a HRP-conjugated secondary antibody solution (100 μL) in 1% BSA/PBS (Dako, Cambridge, UK) and the resultant signal is determined colourimetrically (OD: 450 nm with a reference wavelength of 655 nm) using TMB substrate (50 μL; R&D Systems, Abingdon, UK). This reaction is stopped by addition of 1N H2SO4 solution (50 μL). Cells are then washed with washing buffer and 2% crystal violet solution (50 μL) is applied for 30 min. After washing with washing buffer (3×200 μL), 1% SDS (100 μL) is added to each well and the plates are shaken lightly for 1 hr prior to measuring the absorbance at 595 nm (Varioskan® Flash, Thermo-Fisher Scientific).
The measured OD450-655 readings are corrected for cell number by dividing the OD450-655 by the OD595 readings.

Syk = Syk (Homo sapiens (Human), UniProt P43405); test: Syk enzyme inhibition (FRET, Z-LYTE); format: biochemical
Method: as §1, §2, §3

Sequence of c-Src (P12931 whole entry, looked up): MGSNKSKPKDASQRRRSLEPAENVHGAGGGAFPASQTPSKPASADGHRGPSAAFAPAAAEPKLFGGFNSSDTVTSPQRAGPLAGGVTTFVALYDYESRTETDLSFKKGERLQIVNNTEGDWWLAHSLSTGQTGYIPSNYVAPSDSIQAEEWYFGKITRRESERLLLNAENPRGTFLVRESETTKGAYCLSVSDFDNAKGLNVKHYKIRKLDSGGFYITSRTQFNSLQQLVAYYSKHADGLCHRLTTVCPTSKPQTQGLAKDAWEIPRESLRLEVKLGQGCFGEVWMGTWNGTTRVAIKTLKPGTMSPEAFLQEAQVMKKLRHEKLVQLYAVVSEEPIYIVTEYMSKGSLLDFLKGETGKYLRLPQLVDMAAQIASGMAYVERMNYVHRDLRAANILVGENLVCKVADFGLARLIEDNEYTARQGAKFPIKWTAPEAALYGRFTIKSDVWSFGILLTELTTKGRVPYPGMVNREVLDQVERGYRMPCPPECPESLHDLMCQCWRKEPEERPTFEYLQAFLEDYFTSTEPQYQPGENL

Structure (SMILES) | IC50 (c-Src) [nM] | IC50 (p38 MAPKα (MAPK14)) [nM] | IC50 (GSK 3α) [nM] | IC50 (Syk) [nM] | % β-catenin induction ([1]; test compound 1 μg/mL) [%] | % β-catenin induction ([1]; test compound 5 μg/mL) [%] | % β-catenin induction ([1]; test compound 10 μg/mL) [%]
COCCOCCOCCOc1cc(Nc2nccc(Oc3ccc(NC(=O)Nc4cc(C(C)(C)C)cc(NS(=O)(=O)N5CCOCC5)c4OC)c4ccccc34)n2)cc(OC)c1 [83(b), N-(5-(tert-butyl)-2-methoxy-3-(3-(4-((2-((3-methoxy-5-(2-(2-(2-methoxyethoxy)ethoxy)-ethoxy)phenyl)amino)pyrimidin-4-yl)oxy)naphthalen-1-yl)ureido)phenyl)morpholine-4-sulfonamide] | 48 | 246 | 9150 | 802 | −6 | −9 | −6
COc1cc(Nc2nccc(Oc3ccc(NC(=O)Nc4cc(C(C)(C)C)cc(NS(C)(=O)=O)c4OC)c4ccccc34)n2)cc(C(=O)NCCN2CCOCC2)c1 [Example 6, 3-((4-((4-(3-(5(tert-Butyl)-2-methoxy-3-(methylsulfonamido)phenyl)ureido)naphthaen-1-yl)oxy)pyrimidin-2-yl)amino)-5-methox-N-(2-morpholinoethyl)benzamide] | 11 | 34 | 541 | 421 | 7 | 20 | 11
COCCOCCOCCNC(=O)c1cc(Nc2nccc(Oc3ccc(NC(=O)Nc4cc(C(C)(C)C)cc(NS(C)(=O)=O)c4OC)c4ccccc34)n2)cc(OC)c1 [Example 7] | 9 | 39 | 516 | 554 | 13 | 29 | 29
COCCOCCOCCOc1cc(Nc2cc(Oc3ccc(NC(=O)Nc4cc(C(C)(C)C)cc(NS(C)(=O)=O)c4OC)c4ccccc34)ccn2)cc(OC)c1 [Example 11, N-(5-(tert-Butyl)-2-methoxy-3-(3-(4-((2-((3-methoxy-5-(2-(2-(2-methoxyethoxy)ethoxy)-ethoxy)phenyl)amino)pyridin-4-yl)oxy)naphthalen-1-yl)ureido)phenyl)-methanesulfonamide] | 21 | 124 | 12200 | 193 | −8 | −5 | −2
CNC(=O)c1cc(C(C)(C)C)cc(NC(=O)Nc2ccc(Oc3ccnc(Nc4cc(OC)cc(OCCOCCOCCOC)c4)n3)c3ccccc23)c1OC [Example 13, 5-(tert-Butyl)-2-methoxy-3-(3-(4-((2-((3-methoxy-5-(2-(2-(2-methoxyethoxy)ethoxy)-ethoxy)phenyl)amino)pyrimidin-4-yl)oxy)naphthalen-1-yl)ureido)-N-methylbenzamide] | 9 | 28 | 824 | 35 | 7 | 34 | 26
C#Cc1cc(Nc2cc(Oc3ccc(NC(=O)Nc4cc(C(N)=O)cc(C(C)(C)C)c4)c4ccccc34)ccn2)cc(C(=O)NCCOCCOCCOC)c1 [Example 62, 3-((4-((4-(3-(3-(tert-Butyl)-5-carbamoylphenyl)ureido)naphthalen-1-yl)oxy)vridin-2-yl)amino)-5-ethynyl-N-(2-(2-(2-methoxyethoxy)ethoxy)ethyl)benzamide] | 44 | 32 | 10600 | 1320 |  |  | 

Now from value to compound, other results behind:

IC50 (c-Src) [nM] | IC50 (p38 MAPKα (MAPK14)) [nM] | IC50 (GSK 3α) [nM] | IC50 (Syk) [nM] | Structure (SMILES) | % β-catenin induction ([1]; test compound 1 μg/mL) [%] | % β-catenin induction ([1]; test compound 5 μg/mL) [%] | % β-catenin induction ([1]; test compound 10 μg/mL) [%]
36 | 77 | 4470 | 125 | COc1cc(Nc2cc(Oc3ccc(NC(=O)Nc4cc(C(C)(C)C)cc(NS(C)(=O)=O)c4OC)c4ccccc34)ccn2)cc(OCCOCCOCCO)c1 [84(e), 1-[5-tert-Butyl-3-(methanesulfonamido)-2-methoxy-phenyl]-3-[4-[[2-[3-[2-[2-(2-hydroxyethoxy)ethoxy]ethoxy]-5-methoxy-anilino]-4-pyridyl]oxy]-1-naphthyl]urea] | −1 | 5 | 7
28 | 86 | 2280 | 137 | COc1cc(CO)cc(Nc2cc(Oc3ccc(NC(=O)Nc4cc(C(C)(C)C)cc(C(N)=O)c4OC)c4ccccc34)ccn2)c1 [84(g), 5-tert-Butyl-3-[[4-[[2-[3-(hydroxymethyl)-5-methoxyanilino]-4-pyridyl]oxy]-1-naphthyl]carbamoylamino]-2-methoxybenzamide] | 1 | 8 | 7
21 | 79 | 1650 | 130 | CNC(=O)c1cc(C(C)(C)C)cc(NC(=O)Nc2ccc(Oc3ccnc(Nc4cc(CO)cc(OC)c4)c3)c3ccccc23)c1OC [84(h), 5-tert-Butyl-3-[[4-[[2-[3-(hydroxymethyl)-5-methoxyanilino]-4-pyridyl]oxy]-1-naphthyl]carbamoylamino]-2-methoxy-N-methyl-benzamide] | −1 | 11 | 10
12 | 118 | 657 | 51 | C#Cc1cc(Nc2nccc(Oc3ccc(NC(=O)Nc4cc(C(C)(C)C)cc(NS(C)(=O)=O)c4OC)c4ccccc34)n2)cc(C(=O)NCCN2CCOCC2)c1 [Example 1, 3-((4-((4-(3-(5-(tert-Butv)-2-methoxy-3-(methysulfonamido)phenyl)ureido)naphthalen-1-yl)oxy)pyrimidin-2-yl)amino)-5-ethynyl-N-(2-morpholinoethyl)benzamide] | 18 | 17 | 
18 | 551 | 1310 | 63 | COCCOCCOCCOc1cc(Nc2nccc(Oc3ccc(NC(=O)Nc4cc(C(C)(C)C)cc(NS(C)(=O)=O)c4OC)c(Cl)c3Cl)n2)cc(OC)c1 [Example 10, N-(5-(tert-Butyl)-3-(3-(2,3-dichloro-4-((2-((3-methoxy-5-(2-(2-(2-methoxyethoxy)ethoxy)-ethoxy)phenyl)amino)pyrimidin-4-yl)oxy)phenyl)ureido)-2-methoxyphenyl)-methanesulfonamide] | 12 | 42 | 39
67 | 332 | 3970 | 86 | COCCOCCOCCOc1cc(Nc2nccc(Oc3ccc(NC(=O)Nc4cc(C(C)(C)C)cc(-c5cnn[nH]5)c4OC)c4ccccc34)n2)cc(OC)c1 [Example 70, 1-(5-(tert-Butyl)-2-methoxy-3-(1H-1,2,3-triazol-5-yl)phenyl)-3-(4-((2-((3-methoxy-5-(2-(2-(2-methoxyethoxy)ethoxy)ethoxy)phenyl)amino)pyrimidin-4-yl)oxy)naphthalen-1-yl)urea] |  |  | 
29 | 38 | 6740 | 656 | COc1cc(Nc2cc(Oc3ccc(NC(=O)Nc4cc(C(C)(C)C)cc(NS(C)(=O)=O)c4OC)c4ccccc34)ccn2)cc(C(=O)NCC(=O)N2CCOCC2)c1 [Example 85(a), 3-[[4-[[4-[[5-tert-Butyl-3-(methanesulfonamido)-2-methoxyphenyl]-carbamoylamino]-1-naphthyl]oxy]-2-pyridyl]amino]-5-methoxy-N-(2-morvholino-2-oxo-ethyl)benzamide] |  |  | 
